Experimental data: US7875600B2, “Pyrimidine compounds as purine receptor antagonist” (Vernalis (R&D) Limited, priority 2004, dated 2011)

Structure (SMILES) | melting point
COCc1cccc(CNC(=O)c2nc(N)nc(-c3ccc(C)o3)c2Br)n1 [Example 117, 2-Amino-5-bromo-N-(6-methoxymethylpyridin-2-ylmethyl)-6-(5-methyl-2-furyl)pyrimidine-4-carboxamide] | 193.5 to 195.1 °C
CCCc1cccc(CNC(=O)c2cc(-c3nccs3)nc(N)n2)n1 [Example 109, 2-Amino-N-(6-n-propylpyridin-2-ylmethyl)-6-(thiazol-2-yl)pyrimidine-4-carboxamide] | 144.1 to 144.3 °C
Nc1nc(C(=O)NCc2ccc3cc[nH]c3c2)cc(-c2ccco2)n1 [Example 48, 2-Amino-6-(2-furyl)-N-(6-indolylmethyl)pyrimidine-4-carboxamide] | 193.8 to 194 °C
Nc1nc(C(=O)NCCCc2ccccc2)cc(-c2ccco2)n1 [Example 83, 2-Amino-6-(2-furyl)-N-(3-phenylpropyl)pyrimidine-4-carboxamide] | 131 to 131.1 °C
CCCn1ccnc1CNC(=O)c1cc(-c2ccco2)nc(N)n1 [Example 92, 2-Amino-6-(2-furyl)-N-(1-n-propyl-1H-imidazol-2-ylmethyl)pyrimidine-4-carboxamide] | 270.7 to 271.5 °C
COc1nc(C)ccc1CNC(=O)c1cc(-c2ccco2)nc(N)n1 [Example 29, 2-Amino-6-(2-furyl)-N-(2-methoxy-6-methylpyridin-3-ylmethyl)pyrimidine-4-carboxamide] | 178 to 178.1 °C
Cn1ccnc1CNC(=O)c1cc(-c2ccco2)nc(N)n1 [Example 34, 2-Amino-6-(2-furyl)-N-(1-methyl-1H-imidazol-2-ylmethyl)pyrimidine-4-carboxamide] | 209.5 to 210.3 °C
Nc1nc(C(=O)N2CCc3ccccc3C2)cc(-c2ccco2)n1 [Example 71, 2-(2-Amino-6-(2-furyl)pyrimidin-4-ylcarbonyl)-1,2,3,4-tetrahydroisoquinoline] | 193.3 to 193.6 °C
CCCNC(=O)OCc1cccc(CNC(=O)c2cc(-c3ccco3)nc(N)n2)n1 [Example 85, 6-(2-Amino-6-(2-furyl)pyrimidine-4-carboxamidomethyl)pyridin-2-ylmethyl n-propylcarbamate] | 151.6 to 155.7 °C
Cc1ccc(CNC(=O)c2cc(-c3ccco3)nc(N)n2)c(N(C)C)n1 [Example 102, 2-Amino-N-(2-dimethylamino-6-methylpyridin-3-ylmethyl)-6-(2-furyl)pyrimidine-4-carboxamide] | 203 to 203.1 °C
COCc1cccc(CNC(=O)c2nc(N)nc(-c3ccc(C)o3)c2Cl)n1 [Example 116, 2-Amino-5-chloro-N-(6-methoxymethylpyridin-2-ylmethyl)-6-(5-methyl-2-furyl)pyrimidine-4-carboxamide] | 168.6 to 168.9 °C
C[C@@H](NC(=O)c1cc(-c2ccco2)nc(N)n1)c1ccccc1 [Example 63, (R)-2-Amino-6-(2-furyl)-N-(1-phenylethyl)pyrimidine-4-carboxamide] | 158.8 to 159.1 °C
COc1cccc(CNC(=O)c2cc(-c3ccco3)nc(N)n2)c1 [Example 3, 2-Amino-6-(2-furyl)-N-(3-methoxybenzyl)pyrimidine-4-carboxamide] | 229.2 to 234.5 °C
COCc1ccc(C)c(CNC(=O)c2cc(-c3ccco3)nc(N)n2)n1 [Example 46, 2-Amino-6-(2-furyl)-N-(6-methoxymethyl-3-methylpyridin-2-ylmethyl)pyrimidine-4-carboxamide] | 148 to 148.4 °C
Cc1[nH]c2ccc(CNC(=O)c3cc(-c4ccco4)nc(N)n3)cc2c1C [Example 36, 2-Amino-N-(2,3-dimethylindol-5-ylmethyl)-6-(2-furyl)pyrimidine-4-carboxamide] | 155.9 to 156 °C
CC(C)NC(=O)OCc1cccc(CNC(=O)c2cc(-c3ccco3)nc(N)n2)n1 [Example 41, 6-(2-Amino-6-(2-furyl)pyrimidine-4-carboxamidomethyl)pyridin-2-ylmethyl isopropylcarbamate] | 155.2 to 155.7 °C
Nc1nc(C(=O)NCc2nc3ccccc3[nH]2)cc(-c2ccco2)n1 [Example 17, 2-Amino-N-(1H-benzimidazol-2-ylmethyl)-6-(2-furyl)pyrimidine-4-carboxamide] | 290.9 to 291.3 °C
CCn1ccnc1CNC(=O)c1cc(-c2ccco2)nc(N)n1 [Example 98, 2-Amino-N-(1-ethyl-1H-imidazol-2-ylmethyl)-6-(2-furyl)pyrimidine-4-carboxamide] | 263.1 to 264.9 °C
Nc1nc(C(=O)NC2CCc3ccccc32)cc(-c2ccco2)n1 (stereo in doubt) [Example 78, (R)-2-Amino-6-(2-furyl)-N-(1-indanyl)pyrimidine-4-carboxamide] | 126.7 to 127.2 °C
C[C@H](NC(=O)c1cc(-c2ccco2)nc(N)n1)c1ccccc1 [Example 60, (S)-2-Amino-6-(2-furyl)-N-(1-phenylethyl)pyrimidine-4-carboxamide] | 158.7 to 158.9 °C
Cc1cnc(CNC(=O)c2cc(-c3ccco3)nc(N)n2)cn1 [Example 88, 2-Amino-6-(2-furyl)-N-(5-methylpyrazin-2-ylmethyl)pyrimidine-4-carboxamide] | 191.9 to 192 °C
Nc1nc(C(=O)NCc2cccc(C(F)(F)F)c2)cc(-c2ccco2)n1 [Example 16, 2-Amino-N-(3-trifluoromethylbenzyl)-6-(2-furyl)pyrimidine-4-carboxamide] | 170.6 to 170.7 °C
Nc1nc(C(=O)NCc2cccc3cccnc23)cc(-c2ccco2)n1 [Example 49, 2-Amino-6-(2-furyl)-N-(quinolin-8-ylmethyl)pyrimidine-4-carboxamide] | 230.7 to 230.9 °C
Nc1nc(C(=O)NCc2cccc(Br)n2)cc(-c2ccco2)n1 [Example 94, 2-Amino-N-(6-bromopyridin-2-ylmethyl)-6-(2-furyl)pyrimidine-4-carboxamide] | 178.1 to 179.3 °C
Nc1nc(C(=O)N2CCc3ccccc32)cc(-c2ccco2)n1 [Example 75, 1-(2-Amino-6-(2-furyl)pyrimidin-4-ylcarbonyl)-2,3-dihydroindole] | 251.9 to 252.3 °C
Nc1nc(C(=O)NCCCn2ccnc2)cc(-c2ccco2)n1 [Example 96, 2-Amino-6-(2-furyl)-N-(3-(1H-imidazol-1-yl)propyl)pyrimidine-4-carboxamide] | 248.2 to 249 °C
Nc1nc(C(=O)NC2Cc3ccccc3C2)cc(-c2ccco2)n1 [Example 90, 2-Amino-6-(2-furyl)-N-(2-indanyl)pyrimidine-4-carboxamide] | 220 to 221.3 °C

Other lines, results leading:

melting point | Structure (SMILES)
218 to 219.8 °C | NC(=O)c1cc(-c2ccco2)nc(N)n1 [Example 8, 2-Amino-6-(2-furyl)pyrimidine-4-carboxamide]
105.6 to 105.7 °C | Cc1cc2cc(CNC(=O)c3cc(-c4ccco4)nc(N)n3)ccc2[nH]1 [Example 40, 2-Amino-6-(2-furyl)-N-(2-methylindol-5-ylmethyl)pyrimidine-4-carboxamide]
111.8 to 112.5 °C | Nc1nc(C(=O)NC2CCc3ccccc32)cc(-c2ccco2)n1 (stereo in doubt) [Example 79, (S)-2-Amino-6-(2-furyl)-N-(1-indanyl)pyrimidine-4-carboxamide]
170.1 to 170.5 °C | Nc1nc(C(=O)NCc2ccc3[nH]ccc3c2)cc(-c2ccco2)n1 [Example 35, 2-Amino-6-(2-furyl)-N-(5-indolylmethyl)pyrimidine-4-carboxamide]
> 200 °C (dec.) | Nc1nc(C(=O)NCc2ncc[nH]2)cc(-c2ccco2)n1 [Example 91, 2-Amino-6-(2-furyl)-N-(1H-imidazol-2-ylmethyl)pyrimidine-4-carboxamide]
203.8 to 204.5 °C | Nc1nc(C(=O)N2CCCc3ccccc32)cc(-c2ccco2)n1 [Example 72, 1-(2-Amino-6-(2-furyl)pyrimidin-4-ylcarbonyl)-1,2,3,4-tetrahydroquinoline]
139.5 to 143 °C | Nc1nc(C(=O)N2CCCCC2)cc(-c2ccco2)n1 [Example 5, 1-(2-Amino-6-(2-furyl)pyrimidin-4-ylcarbonyl)piperidine]
202.4 to 202.9 °C | CN(C)c1ccc(CNC(=O)c2cc(-c3ccco3)nc(N)n2)cc1 [Example 9, 2-Amino-6-(2-furyl)-N-(4-dimethylaminobenzyl)pyrimidine-4-carboxamide]
195.5 to 197.5 °C | Nc1nc(C(=O)NCc2ncccc2CN2CCOCC2)cc(-c2ccco2)n1 [Example 22, 2-Amino-6-(2-furyl)-N-(3-(4-morpholinylmethyl)pyridin-2-ylmethyl)pyrimidine-4-carboxamide]
171.2 to 172.1 °C | Nc1nc(C(=O)NCc2ccc3nsnc3c2)cc(-c2ccco2)n1 [Example 53, 2-Amino-N-([2,1,3]benzothiadiazol-5-ylmethyl)-6-(2-furyl)pyrimidine-4-carboxamide]
154.5 to 156.9 °C | Cc1ccc(COCC2CC2)nc1CNC(=O)c1cc(-c2ccco2)nc(N)n1 [Example 59, 2-Amino-N-(6-cyclopropylmethoxymethyl-3-methylpyridin-2-ylmethyl)-6-(2-furyl)pyrimidine-4-carboxamide]
191.8 to 192.2 °C | Cc1cc(CNC(=O)c2cc(-c3ccco3)nc(N)n2)ccc1[N+](=O)[O-] [Example 37, 2-Amino-6-(2-furyl)-N-(3-methyl-4-nitrobenzyl)pyrimidine-4-carboxamide]
226.2 to 226.3 °C | Nc1nc(C(=O)N2Cc3ccccc3C2)cc(-c2ccco2)n1 [Example 66, 2-(2-Amino-6-(2-furyl)pyrimidin-4-ylcarbonyl)-2,3-dihydro-1H-isoindole]
180.9 to 181.4 °C | Nc1nc(C(=O)NCc2ccc3ccccc3n2)cc(-c2ccco2)n1 [Example 57, 2-Amino-6-(2-furyl)-N-(quinolin-2-ylmethyl)pyrimidine-4-carboxamide]
219.9 to 222.3 °C | Nc1nc(C(=O)NCc2nc3ccccc3s2)cc(-c2ccco2)n1 [Example 58, 2-Amino-N-(benzothiazol-2-ylmethyl)-6-(2-furyl)pyrimidine-4-carboxamide]
